Results reported in ChEMBL document CHEMBL3351916, “Synthesis and cytotoxic evaluation of novel ester-triazole-linked triterpenoid-AZT conjugates” (Bioorg Med Chem Lett, 2014).

What was measured:
[1] = test system: KB; experiment: Cytotoxicity against human KB cells; type: functional, cell-based
[2] = test system: HepG2; experiment: Cytotoxicity against human HepG2 cells; type: functional, cell-based

For `C=C(C)[C@@H]1CC[C@]2(C(=O)O)CC[C@]3(C)[C@H](CC[C@@H]4[C@@]5(C)CC[C@@H](O)[C@@](C)(C(=O)O)[C@@H]5CC[C@]43C)[C@@H]12`, which IC50 [1] is on record?
Its IC50 is 110 µM.

What about the IC50 [2] of the same compound?
The IC50 was 223 µM.

For `C#CCOC(=O)[C@]12CC[C@@H](C(=C)C)[C@@H]1[C@H]1CC[C@@H]3[C@@]4(C)CC[C@H](O)C(C)(C)[C@@H]4CC[C@@]3(C)[C@]1(C)CC2`, which IC50 [1] is on record?
Its IC50 is > 259 µM.

What about the IC50 [2] of the same compound?
The IC50 was 114 µM.

`C=C(C)[C@@H]1CC[C@]2(C(=O)O)CC[C@]3(C)[C@H](CC[C@@H]4[C@@]5(C)CCC(=O)[C@H](C)[C@@H]5CC[C@]43C)[C@@H]12` was tested. Which IC50 [1] did it give?
Its IC50 is 7.7 µM.

And the IC50 [2]?
The IC50 was 11.2 µM.

For `C#CCOC(=O)[C@]12CC[C@@H](C(=C)C)[C@@H]1[C@H]1CC[C@@H]3[C@@]4(C)CC[C@H](OC(=O)CCC(=O)O)C(C)(C)[C@@H]4CC[C@@]3(C)[C@]1(C)CC2`, which IC50 [1] is on record?
The IC50 was 22.2 µM.

And the IC50 [2]?
The IC50 was 49.9 µM.

What does the source list for `C#CCOC(=O)[C@]12CC[C@@H](C(=C)C)[C@@H]1[C@H]1CC[C@@H]3[C@@]4(C)CC[C@H](OC(=O)CCCC(=O)O)C(C)(C)[C@@H]4CC[C@@]3(C)[C@]1(C)CC2`?
IC50 [1]: 28.7 µM; IC50 [2]: 19.9 µM

With `C#CCOC(=O)[C@]12CC[C@@H](C(=C)C)[C@@H]1[C@H]1CC[C@@H]3[C@@]4(C)CC[C@H](OC(=O)CC(C)CC(=O)O)C(C)(C)[C@@H]4CC[C@@]3(C)[C@]1(C)CC2` (stereo partly specified) as the compound, how does the IC50 [1] read?
The IC50 was 12.5 µM.

What about the IC50 [2] of the same compound?
Its IC50 is 129 µM.

With `C=C(C)[C@@H]1CC[C@]2(C(=O)OCc3cn([C@H]4C[C@H](n5cc(C)c(=O)[nH]c5=O)O[C@@H]4CO)nn3)CC[C@]3(C)[C@H](CC[C@@H]4[C@@]5(C)CC[C@H](O)C(C)(C)[C@@H]5CC[C@]43C)[C@@H]12` as the compound, how does the IC50 [1] read?
Its IC50 is 5.9 µM.

And the IC50 [2]?
The IC50 was 7 µM.

`C=C(C)[C@@H]1CC[C@]2(C(=O)OCc3cn([C@H]4C[C@H](n5cc(C)c(=O)[nH]c5=O)O[C@@H]4CO)nn3)CC[C@]3(C)[C@H](CC[C@@H]4[C@@]5(C)CC[C@H](OC(=O)CCC(=O)O)C(C)(C)[C@@H]5CC[C@]43C)[C@@H]12` was tested. Which IC50 [1] did it give?
Its IC50 is 24.7 µM.

What about the IC50 [2] of the same compound?
The IC50 was 20.6 µM.

How did the IC50 [1] turn out when `C=C(C)[C@@H]1CC[C@]2(C(=O)OCc3cn([C@H]4C[C@H](n5cc(C)c(=O)[nH]c5=O)O[C@@H]4CO)nn3)CC[C@]3(C)[C@H](CC[C@@H]4[C@@]5(C)CC[C@H](OC(=O)CCCC(=O)O)C(C)(C)[C@@H]5CC[C@]43C)[C@@H]12` was run?
The IC50 was 20.4 µM.

What about the IC50 [2] of the same compound?
The IC50 was 18.3 µM.

How did the IC50 [1] turn out when `C=C(C)[C@@H]1CC[C@]2(C(=O)OCc3cn([C@H]4C[C@H](n5cc(C)c(=O)[nH]c5=O)O[C@@H]4CO)nn3)CC[C@]3(C)[C@H](CC[C@@H]4[C@@]5(C)CC[C@H](OC(=O)CC(C)CC(=O)O)C(C)(C)[C@@H]5CC[C@]43C)[C@@H]12` (stereo partly specified) was run?
Its IC50 is 111 µM.

And the IC50 [2]?
Its IC50 is 35.2 µM.

With `Cc1cn([C@H]2C[C@H](n3cc(COC(=O)[C@]45CC[C@@H](C)[C@H](C)[C@H]4C4=CC[C@@H]6[C@@]7(C)CC[C@H](O)C(C)(C)[C@@H]7CC[C@@]6(C)[C@]4(C)CC5)nn3)[C@@H](CO)O2)c(=O)[nH]c1=O` as the compound, how does the IC50 [1] read?
Its IC50 is 28.5 µM.

And the IC50 [2]?
Its IC50 is 34 µM.

Which IC50 [1] does the source give for `Cc1cn([C@H]2C[C@H](n3cc(COC(=O)[C@]45CCC(C)(C)C[C@H]4C4=CC[C@@H]6[C@@]7(C)CC[C@H](O)C(C)(C)[C@@H]7CC[C@@]6(C)[C@]4(C)CC5)nn3)[C@@H](CO)O2)c(=O)[nH]c1=O` here?
Its IC50 is 6.3 µM.

What about the IC50 [2] of the same compound?
The IC50 was 7.4 µM.

`C#CCOC(=O)[C@]12CC[C@@H](C(=C)C)[C@@H]1[C@H]1CC[C@@H]3[C@@]4(C)CCC(=O)[C@H](C)[C@@H]4CC[C@@]3(C)[C@]1(C)CC2` was tested. Which IC50 [1] did it give?
Its IC50 is > 267 µM.

And the IC50 [2]?
The IC50 was > 267 µM.

What does the source list for `C#CCOC(=O)[C@]12CC[C@@H](C(=C)C)[C@@H]1[C@H]1CC(=O)[C@@H]3[C@@]4(C)CCC(=O)[C@H](C)[C@@H]4CC[C@@]3(C)[C@]1(C)CC2`?
IC50 [1]: 63.9 µM; IC50 [2]: 59.5 µM

How did the IC50 [1] turn out when `C=C(C)[C@@H]1CC[C@]2(C(=O)OCc3cn([C@H]4C[C@H](n5cc(C)c(=O)[nH]c5=O)O[C@@H]4CO)nn3)CC[C@]3(C)[C@H](CC[C@@H]4[C@@]5(C)CCC(=O)[C@H](C)[C@@H]5CC[C@]43C)[C@@H]12` was run?
Its IC50 is > 172 µM.

And the IC50 [2]?
The IC50 was > 172 µM.

For `C=C(C)[C@@H]1CC[C@]2(C(=O)OCc3cn([C@H]4C[C@H](n5cc(C)c(=O)[nH]c5=O)O[C@@H]4CO)nn3)CC[C@]3(C)[C@H](CC(=O)[C@@H]4[C@@]5(C)CCC(=O)[C@H](C)[C@@H]5CC[C@]43C)[C@@H]12`, which IC50 [1] is on record?
Its IC50 is > 168 µM.

And the IC50 [2]?
Its IC50 is > 168 µM.

For `C#CCOC(=O)[C@]12CC[C@@H](C(=C)C)[C@@H]1[C@H]1CC[C@@H]3[C@@]4(C)CC[C@H](O)[C@H](C)[C@@H]4CC[C@@]3(C)[C@]1(C)CC2`, which IC50 [1] is on record?
Its IC50 is 40 µM.

And the IC50 [2]?
The IC50 was 133 µM.

Which results are given for `C#CCOC(=O)[C@]12CC[C@@H](C(=C)C)[C@@H]1[C@H]1CC[C@@H]3[C@@]4(C)CC[C@H](OC(=O)CCC(=O)O)[C@H](C)[C@@H]4CC[C@@]3(C)[C@]1(C)CC2`?
IC50 [1]: 10.6 µM; IC50 [2]: 11.4 µM

Which results are given for `C#CCOC(=O)[C@]12CC[C@@H](C(=C)C)[C@@H]1[C@H]1CC[C@@H]3[C@@]4(C)CC[C@H](OCCCC(=O)O)[C@H](C)[C@@H]4CC[C@@]3(C)[C@]1(C)CC2`?
IC50 [1]: 9.9 µM; IC50 [2]: 27.3 µM

For `C=C(C)[C@@H]1CC[C@]2(C(=O)OCc3cn([C@H]4C[C@H](n5cc(C)c(=O)[nH]c5=O)O[C@@H]4CO)nn3)CC[C@]3(C)[C@H](CC[C@@H]4[C@@]5(C)CC[C@H](OC(=O)CCC(=O)O)[C@H](C)[C@@H]5CC[C@]43C)[C@@H]12`, which IC50 [1] is on record?
The IC50 was 7.3 µM.

And the IC50 [2]?
Its IC50 is 7.8 µM.

What does the source list for `C=C(C)[C@@H]1CC[C@]2(C(=O)OCc3cn([C@H]4C[C@H](n5cc(C)c(=O)[nH]c5=O)O[C@@H]4CO)nn3)CC[C@]3(C)[C@H](CC[C@@H]4[C@@]5(C)CC[C@H](OCCCC(=O)O)[C@H](C)[C@@H]5CC[C@]43C)[C@@H]12`?
IC50 [1]: > 148 µM; IC50 [2]: > 148 µM

With `C=C(C)[C@@H]1CC[C@]2(C(=O)OCc3cn([C@H]4C[C@H](n5cc(C)c(=O)[nH]c5=O)O[C@@H]4CO)nn3)CC[C@]3(C)[C@H](CC[C@@H]4[C@@]5(C)CC[C@H](O)[C@H](C)[C@@H]5CC[C@]43C)[C@@H]12` as the compound, how does the IC50 [1] read?
Its IC50 is 34 µM.

And the IC50 [2]?
Its IC50 is 7.3 µM.

What does the source list for `C=C(C)[C@@H]1CC[C@]2(C(=O)O)CC[C@]3(C)[C@H](C[C@@H](O)[C@@H]4[C@@]5(C)CCC(=O)[C@@H](C)[C@@H]5CC[C@]43C)[C@@H]12`?
IC50 [1]: 46.8 µM; IC50 [2]: 58 µM

What does the source list for `C#CCOC(=O)[C@]12CC[C@@H](C(=C)C)[C@@H]1[C@H]1C[C@@H](O)[C@@H]3[C@@]4(C)CCC(=O)[C@@H](C)[C@@H]4CC[C@@]3(C)[C@]1(C)CC2`?
IC50 [1]: 21.9 µM; IC50 [2]: 39.6 µM

How did the IC50 [1] turn out when `C=C(C)[C@@H]1CC[C@]2(C(=O)OCc3cn([C@H]4C[C@H](n5cc(C)c(=O)[nH]c5=O)O[C@@H]4CO)nn3)CC[C@]3(C)[C@H](C[C@@H](O)[C@@H]4[C@@]5(C)CCC(=O)[C@@H](C)[C@@H]5CC[C@]43C)[C@@H]12` was run?
The IC50 was 136 µM.

And the IC50 [2]?
The IC50 was 8.5 µM.

Which IC50 [1] does the source give for `C=C(C)[C@@H]1CC[C@]2(C(=O)O)CC[C@]3(C)[C@H](C[C@@H](O)[C@@H]4[C@@]5(C)CC[C@@H](O)[C@@](C)(C(=O)O)[C@@H]5CC[C@]43C)[C@@H]12` here?
The IC50 was > 255 µM.

What about the IC50 [2] of the same compound?
The IC50 was > 255 µM.

For `C#CCOC(=O)[C@]12CCC(C)(C)C[C@H]1C1=CC[C@@H]3[C@@]4(C)CC[C@H](O)C(C)(C)[C@@H]4CC[C@@]3(C)[C@]1(C)CC2` [3BETA-HYDROXY-OLEN-12-EN-28-PROPARGYLATE], which IC50 [1] is on record?
Its IC50 is 38.4 µM.

What about the IC50 [2] of the same compound?
Its IC50 is > 259 µM.

`C#CCOC(=O)[C@]12CC[C@@H](C)[C@H](C)[C@H]1C1=CC[C@@H]3[C@@]4(C)CC[C@H](O)C(C)(C)[C@@H]4CC[C@@]3(C)[C@]1(C)CC2` [3BETA-HYDROXY-URS-12-EN-28-PROPARGYLATE] was tested. Which IC50 [1] did it give?
The IC50 was 38 µM.

And the IC50 [2]?
Its IC50 is 36.5 µM.

For `C=C(C)[C@@H]1CC[C@]2(C(=O)O)CC[C@]3(C)[C@H](CC[C@@H]4[C@@]5(C)CC[C@H](O)C(C)(C)[C@@H]5CC[C@]43C)[C@@H]12` [BETULINIC ACID], which IC50 [1] is on record?
Its IC50 is 27.5 µM.

What about the IC50 [2] of the same compound?
The IC50 was 23.9 µM.

`Cc1c2ccncc2c(C)c2c1[nH]c1ccccc12` [ELLIPTECINE] was tested. Which IC50 [1] did it give?
The IC50 was 1.2 µM.

And the IC50 [2]?
The IC50 was 1.2 µM.

Which results are given for `CC1(C)CC[C@]2(C(=O)O)CC[C@]3(C)C(=CC[C@@H]4[C@@]5(C)CC[C@H](O)C(C)(C)[C@@H]5CC[C@]43C)[C@@H]2C1` [OLEANOLIC_ACID]?
IC50 [1]: > 280 µM; IC50 [2]: > 280 µM

How did the IC50 [1] turn out when `C[C@H]1[C@H](C)CC[C@]2(C(=O)O)CC[C@]3(C)C(=CC[C@@H]4[C@@]5(C)CC[C@H](O)C(C)(C)[C@@H]5CC[C@]43C)[C@H]12` [URSOLIC ACID] was run?
Its IC50 is 31.5 µM.

What about the IC50 [2] of the same compound?
The IC50 was 42.9 µM.

With `Cc1cn([C@H]2C[C@H](N=[N+]=[N-])[C@@H](CO)O2)c(=O)[nH]c1=O` [ZIDOVUDINE] as the compound, how does the IC50 [1] read?
Its IC50 is > 479 µM.

What about the IC50 [2] of the same compound?
Its IC50 is > 479 µM.
